Reference: patent US20220396569A1 (Carmot Therapeutics, Inc., priority 2021, published 2022)

target: T1, human GLP-1 receptor (Homo sapiens, UniProt P43220); assay: GLP-1R cAMP Assay (HitHunter cAMP accumulation); type: cell-based; conditions: cAMP accumulation, CHO cells stably overexpressing human GLP-1 receptor, 30 min treatment; read-out: EC50
T1 construct: expressed in transfected cells
Method: cAMP accumulation was measured in Chinese hamster ovary (CHO) cells stably overexpressing the human GLP-1 receptor using the HitHunter cAMP Assay for Small Molecules Kit (Eurofins). Briefly, cells were grown in Ham's F12 Nutrient Mix with 10% FBS, and lifted with Cell Dissociation Buffer, Enzyme free, PBS based (ThermoFisher). Cells were pelleted, and resuspended in Hank's buffered saline solution with 10 mM HEPES, and 625 μM 3-isobutyl-1-methylxanthine. The anti-cAMP antibody reagent was then added to cells at a 1:2 ratio and 5 μL of mixture was seeded in 384-well small volume white assay plates, at 10,000 cells/well. Cells were then treated with 50 nL compound using an ECHO 550 acoustic dispenser (Labcyte) in a 20-point dose response format in triplicate for 30 min. Cells were then lysed, and detection reagents added according to the manufacturer's protocol. After overnight incubation, luminescence was measured using a Perkin Elmer Envision plate reader. Dose response curves were analyzed using GraphPad Prism 9.0. […]

T1 sequence (P43220 24-463): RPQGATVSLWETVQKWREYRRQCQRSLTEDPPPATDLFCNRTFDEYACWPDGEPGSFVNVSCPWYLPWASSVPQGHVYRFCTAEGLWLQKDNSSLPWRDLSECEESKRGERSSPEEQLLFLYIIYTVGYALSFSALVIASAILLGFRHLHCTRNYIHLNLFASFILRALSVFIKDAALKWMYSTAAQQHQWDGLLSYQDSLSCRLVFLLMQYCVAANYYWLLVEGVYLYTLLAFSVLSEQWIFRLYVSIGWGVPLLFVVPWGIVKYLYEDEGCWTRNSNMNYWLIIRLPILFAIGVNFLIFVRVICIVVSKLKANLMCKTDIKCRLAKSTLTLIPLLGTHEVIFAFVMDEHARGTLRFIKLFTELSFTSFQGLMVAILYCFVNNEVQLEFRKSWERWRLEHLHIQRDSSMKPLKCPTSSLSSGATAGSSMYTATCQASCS

Compound | EC50
CCn1cncc1Cn1c(CN2CC[C@@H](Oc3ccnc(COc4ccc(Cl)cc4Cl)c3)C2)nc2ccc(C(=O)O)cc21 [Compound 245, 2-{[(3R)-3-({2-[(2,4-dichlorophenoxy)methyl]pyridin-4-yl}oxy)pyrrolidin-1-yl]methyl}-1-[(1-ethyl-1H-imidazol-5-yl)methyl]-1H-1,3-benzodiazole-6-carboxylic acid] | < 0.05 µM
CCn1cncc1Cn1c(CN2CCC(c3cccc(Oc4ccccc4)c3)C2)nc2ccc(C(=O)O)cc21 (racemic) [Example 134, 1-((1-Ethyl-1H-imidazol-5-yl)methyl)-2-((3-(3-phenoxyphenyl)pyrrolidin-1-yl)methyl)-1H-benzo[d]imidazole-6-carboxylic acid] | 0.05 to 0.5 µM
N#CCC1(Cn2c(CN3CC=C(c4ccc(F)c(COc5ccc(C#N)cc5F)n4)C3)nc3c(F)cc(C(=O)O)cc32)CC1 [Compound 424, 2-[(3-{6-[(4-cyano-2-fluorophenoxy)methyl]-5-fluoropyridin-2-yl}-2,5-dihydro-1H-pyrrol-1-yl)methyl]-1-{[1-(cyanomethyl)cyclopropyl]methyl}-4-fluoro-1H-1,3-benzodiazole-6-carboxylic acid] | < 0.05 µM
O=C(O)c1ccc2nc(CN3CC=C(c4cnc(COc5ccc(Cl)cc5Cl)o4)C3)n(C[C@@H]3CCO3)c2c1 [Example 474, (S)-2-((3-(2-((2,4-Dichlorophenoxy)methyl)oxazol-5-yl)-2,5-dihydro-1H-pyrrol-1-yl)methyl)-1-(oxetan-2-ylmethyl)-1H-benzo[d]imidazole-6-carboxylic acid] | < 0.05 µM
CCn1cncc1Cn1c(CN2CC=C(c3cccc(COc4ccc(Cl)cc4Cl)n3)C2)nc2ccc(C(=O)O)cc21 [Compound 385, 2-[(3-{6-[(2,4-dichlorophenoxy)methyl]pyridin-2-yl}-2,5-dihydro-1H-pyrrol-1-yl)methyl]-1-[(1-ethyl-1H-imidazol-5-yl)methyl]-1H-1,3-benzodiazole-6-carboxylic acid] | < 0.05 µM
O=C(O)c1ccc2nc(CN3CC[C@H](c4cccc(COc5ccc(Cl)cc5F)c4)C3)n(C[C@@H]3CCO3)c2c1 (single isomer, unassigned) [Example 412] | 0.05 to 0.5 µM
O=C(O)c1ccc2nc(CN3CC(Oc4cccc(COc5ccc(Cl)cc5Cl)c4)C3)n(Cc3ccno3)c2c1 [Compound 237, 2-[(3-{3-[(2,4-dichlorophenoxy)methyl]phenoxy}azetidin-1-yl)methyl]-1-[(1,2-oxazol-5-yl)methyl]-1H-1,3-benzodiazole-6-carboxylic acid] | < 0.05 µM

Now from value to molecule:

EC50 | Compound
< 0.05 µM | O=C(O)c1ccc2nc(CN3CC=C(c4cncc(COc5ccc(Cl)cc5F)n4)C3)n(C[C@@H]3CCO3)c2c1 [Example 396, (S)-2-((3-(6-((4-Chloro-2-fluorophenoxy)methyl)pyrazin-2-yl)-2,5-dihydro-1H-pyrrol-1-yl)methyl)-1-(oxetan-2-ylmethyl)-1H-benzo[d]imidazole-6-carboxylic acid]
< 0.05 µM | N#Cc1ccc(OCc2nccc(Oc3ccc(Cc4nc5ccc(C(=O)O)cc5n4C[C@@H]4CCO4)c(F)c3)n2)c(F)c1 [Compound 465, 2-{[4-({2-[(4-cyano-2-fluorophenoxy)methyl]pyrimidin-4-yl}oxy)-2-fluorophenyl]methyl}-1-{[(2S)-oxetan-2-yl]methyl}-1H-1,3-benzodiazole-6-carboxylic acid]
< 0.05 µM | O=C(O)c1ccc2nc(CN3CC=C(c4cc(F)cc(COc5ccc(Cl)cc5F)c4)C3)n(C[C@@H]3CCO3)c2c1 [Compound 418, 2-[(3-{3-[(4-chloro-2-fluorophenoxy)methyl]-5-fluorophenyl}-2,5-dihydro-1H-pyrrol-1-yl)methyl]-1-{[(2S)-oxetan-2-yl]methyl}-1H-1,3-benzodiazole-6-carboxylic acid]
< 0.05 µM | O=C(O)c1ccc2nc(CN3CCC(c4nc(COc5ccc(Cl)cc5F)ccc4F)C3)n(C[C@@H]3CCO3)c2c1 (stereo partly drawn) [Compound 456, 2-[(3-{6-[(4-chloro-2-fluorophenoxy)methyl]-3-fluoropyridin-2-yl}pyrrolidin-1-yl)methyl]-1-{[(2S)-oxetan-2-yl]methyl}-1H-1,3-benzodiazole-6-carboxylic acid]
